Source: US20150299614A1, “IMPROVEMENTS IN OR RELATING TO ORGANIC COMPOUNDS” (Givaudan, S.A., priority 2012, published 2015)

Assays:
[1] = Odour perception threshold; details: in air
[2] = test system: KeratinoSens™ cell line (Luciferase gene under the control of the ARE-element of the gene AKR1C2); assay: KeratinoSens assay for skin sensitization (luciferase gene induction); type: cell-based; details: for luciferase gene induction relative to the 1.5-fold threshold: 48 h incubation, 0.98 to 2000 μM, FIG. 1; for skin sensitization rating by the KeratinoSens assay: positive if EC1.5 below 1000 μM, viability above 70%, dose-response
Method: The KeratinoSens™ cell line contains a stable insertion of a Luciferase gene under the control of the ARE-element of the gene AKR1C2. The optimization of this cell line and the standard method to test chemicals has been described in detail in Emter et. al. 2010 (Emter R., Ellis G., Natsch A., 2010 “Performance of a novel keratinocyte-based reporter cell line to screen skin sensitizers in vitro. Toxicol Appl Pharmacol 245, 281-290). Cells were grown for 24 h in 96-well plates. The medium was then replaced with medium containing the test chemical and the solvent Dimethylsulfoxide (DMSO) at a final level of 1%. Each compound was tested at 12 binary dilutions in the range from 0.98 to 2000 μM. In each repetition, three parallel replicate plates were run with this same set-up and a fourth parallel plate was prepared for cytotoxicity determination using an MTT assay. Cells were incubated for 48 h with the test agents, and then luciferase activity and cytotoxicity were determined. This full procedure was repeated at least three times for each chemical. For each chemical in each repetition and at each concentration, the gene induction compared to DMSO controls and the wells with statistically significant induction over the threshold of 1.5 (i.e. 50% enhanced gene activity) were determined. Furthermore the maximal fold-induction (Imax) and the EC1.5 value (concentration in μM for induction above the threshold) were calculated. Chemicals are rated as positive (i.e. likely skin-sensitizers) in the assay if the following three criteria are fulfilled (i) The EC1.5 value is below 1000 μM in all three repetitions or in at least 2 repetitions, (ii) at the lowest concentration with a gene induction above 1.5 fold (i.e. at the EC 1.5 determining value), the cellular viability is above 70% and (iii) there is an apparent overall dose-response for luciferase induction, which is similar between the repetitions.

[3] = Colour stability in bar soap; type: physicochemical; details: tallow toilet soap, 2% wt/wt of a 10% wt/wt solution in DPG, 1 month at 45° C.
Method: The extruded 24×8 mm soap string was cut into 8 cm pieces, which were placed in a thermostated oven for 1 month at 45° C. A control sample containing no fragrance was added to the stability test series.

KeratinoSens™ cell line = assay: Cytotoxicity determination using an MTT assay in the KeratinoSens assay; type: cell-based; details: 48 h, oxime: no significant cytotoxicity up to the value, Isoeugenol: cytotoxic above the value
Method: The KeratinoSens™ cell line contains a stable insertion of a Luciferase gene under the control of the ARE-element of the gene AKR1C2. The optimization of this cell line and the standard method to test chemicals has been described in detail in Emter et. al. 2010 (Emter R., Ellis G., Natsch A., 2010 “Performance of a novel keratinocyte-based reporter cell line to screen skin sensitizers in vitro. Toxicol Appl Pharmacol 245, 281-290). Cells were grown for 24 h in 96-well plates. The medium was then replaced with medium containing the test chemical and the solvent Dimethylsulfoxide (DMSO) at a final level of 1%. Each compound was tested at 12 binary dilutions in the range from 0.98 to 2000 μM. In each repetition, three parallel replicate plates were run with this same set-up and a fourth parallel plate was prepared for cytotoxicity determination using an MTT assay. Cells were incubated for 48 h with the test agents, and then luciferase activity and cytotoxicity were determined. […] For each chemical in each repetition and at each concentration, the gene induction compared to DMSO controls and the wells with statistically significant induction over the threshold of 1.5 (i.e. 50% enhanced gene activity) were determined. Furthermore the maximal fold-induction (Imax) and the EC1.5 value (concentration in μM for induction above the threshold) were calculated. […]

[4] = Colour stability in fine fragrance (ethanol solution, indoor daylight); type: physicochemical; details: 1 and 0.5% wt/wt in 96% EtOH, glass vials, visual inspection
Method: A solution of the test compound (compound of formula (I) specified in the Table below) was prepared in perfumery grade ethanol (96% EtOH, 4% water) at 1 and 0.5% wt/wt. The solutions were placed in 2.5 ml transparent glass vials closed with plastic lids. The vials were placed behind a window exposed to indoor daylight. The colour of the solutions was inspected visually over a 1 month period.

[5] = Colour stability in colourless consumer base; type: physicochemical; details: dosed in a colourless consumer base at 0.02%, storage 4 weeks at 45 ° C.
Method: By the term “colour stable” is meant that when dosed in a colourless consumer base at 0.02% and held under storage for 4 weeks at 45 ° C., bases containing the compounds of formula (I) remain colourless upon visual inspection. On the other hand, bases containing iso-eugenol and iso-eugenol “[…]” such as vanillin at the same concentration were discoloured, variously appearing to have yellowish, orange, […] or brown hues.

With `CC(C)c1cccc(C(C)CC=O)c1` (centres unmarked) [3-(3-isopropylphenyl)butanal] the perception threshold [1] was 0.07 ng/L.

For `CC/C=C\CC/C=C/C=N/OC` [(1E,2E,6Z)-nona-2,6-dienal O-methyl oxime], the perception threshold [1] was 2.94 ng/L.

For `CC/C=C\CC/C=C/C=O` [(2E,6Z)-nona-2,6-dienal], the perception threshold [1] was 0.06 ng/L.

With `CCOc1cc(C=NOC)ccc1O` [Cpd I (R1 = Et, R2 = Me), 3-ethoxy-4-hydroxybenzaldehyde O-methyl oxime] the “luciferase gene induction relative to the 1.5-fold threshold” value [2] was “did not induce luciferase activity above the 1.5-fold threshold”, the “skin sensitization rating by the KeratinoSens assay” value [2] was “non-sensitizing” and the “colour of soap after one month” value [3] was “remained as control”. For the same compound, the “concentration above which cytotoxic (cell viability)” value (KeratinoSens™ cell line) was over 1000 µM, the “Colour of ethanol solution after 1 month” value [4] was “colourless” and the “Colour of ethanol solution after 1 month” value ([4]; listed as compound I) was “would have passed the requirements for colourless fine fragrance”.

`CO/N=C/CC(C)c1cccc(C(C)C)c1` (centres unmarked) [E)-3-(3-isopropylphenyl)butanal O-methyl oxime] showed a perception threshold [1] of 22.4 ng/L.

With `CCOc1cc(C=O)ccc1O` [Ethyl Vanillin] the “colour of soap after one month” value [3] was “chocolate brown”, the “Colour of ethanol solution after 1 month” value [4] was “yellow” and the “Colour of ethanol solution after 1 month” value ([4]; listed as ethyl vanillin) was “unacceptable yellow colour”.

In the case of `CC=Cc1ccc(O)c(OC)c1` [Isoeugenol], the “luciferase gene induction relative to the 1.5-fold threshold” value [2] is reported as “clearly induces the gene already in the lower micromolar range”, the “skin sensitization rating by the KeratinoSens assay” value [2] is reported as “sensitizing” and the “concentration above which cytotoxic (cell viability)” value (KeratinoSens™ cell line) is reported as “above 500 micromolar”. For the same compound, the “colour of consumer base upon visual inspection” value [5] was “discoloured”.

With `COc1cc(C=O)ccc1O` [Vanillin] the “colour of consumer base upon visual inspection” value [5] was “discoloured”, the “Colour of ethanol solution after 1 month” value [4] was “yellow” and the “Colour of ethanol solution after 1 month” value ([4]; listed as vanillin) was “unacceptable yellow colour”.
